Marks after values point to notes of the source that are not given here.
How the values were obtained:
[1] = target: T1, Human recombinant HMG-CoA reductase (Homo sapiens, UniProt P04035); test: HMG-CoA reductase inhibition test ([14C]mevalonate formation); assay type: biochemical; settings: for inhibition at 30 µM / inhibition at 3 µM: duplicates; for HMG-CoA reductase inhibiting activity (in words): own investigations
T1 sequence (P04035 426-888 limits assumed): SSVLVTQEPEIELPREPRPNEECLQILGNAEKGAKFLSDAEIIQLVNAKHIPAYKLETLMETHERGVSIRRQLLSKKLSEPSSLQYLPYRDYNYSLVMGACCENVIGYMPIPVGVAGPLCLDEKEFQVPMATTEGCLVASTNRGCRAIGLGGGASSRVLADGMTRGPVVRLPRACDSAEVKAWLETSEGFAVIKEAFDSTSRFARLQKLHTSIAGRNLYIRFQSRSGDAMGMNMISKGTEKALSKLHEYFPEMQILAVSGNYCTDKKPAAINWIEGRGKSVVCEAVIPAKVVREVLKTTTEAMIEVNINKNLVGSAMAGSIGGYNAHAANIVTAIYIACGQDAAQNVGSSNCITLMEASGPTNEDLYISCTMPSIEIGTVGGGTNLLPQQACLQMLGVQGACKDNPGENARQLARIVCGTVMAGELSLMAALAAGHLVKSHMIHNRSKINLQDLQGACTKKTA
Description: Inhibition of HMG-CoA reductase was determined under following conditions. Human recombinant HMG-CoA reductase were pre-incubated with 35 ng/ml enzyme in reaction buffer, pH 7.5 (100 mM KH2PO4, 8 mM Glucose-6-Phosphate, 1 mM nicotinamide adenine dinucleotide phosphate, 4 mM ethylenediaminetetraacetic acid, 2 mM dithiothreitol, 0.6 Units glucose-6-phosphate dehydrogenase) for 15 minutes at 37° C. The reaction was initiated by addition of 2.5 μM [14C]HMG-CoA for another 20 minute incubation period and terminated by further addition of 1 N HCl. An aliquot was removed and then counted to determine the amount of [14C]Mevalonate formed. […] All samples were measured in duplicates.

[2] = system: hamsters fed with a high-cholesterol diet; test: In vivo food cholesterol reduction (hypocholesterolemic activity); parameters: species or system golden Syrian hamsters; settings: oral once a day, extract 100 mg/kg, ezetimibe 1 mg/kg
Description: The dry extract of example 1 was evaluated for possible hypocholesterolemic activity in hamsters fed with a high-cholesterol diet. Groups of 10 male golden Syrian hamsters were induced to hypercholesterolemia by a high cholesterol diet (g/100 g: 5.0 corn oil, 5.0 coconut oil, 0.2 cholesterol and 89.8 standard diet throughout the 28-day experimental period. After the test animals had been kept on the high cholesterol diet for 7 days, vehicle (1% Cremophor EL in phosphate buffered saline) and extract of example 1 (incorporated into said vehicle) were administered orally, starting on day 1, for 28 days at 100 mg/kg, once a day, were administered orally for 28 consecutive days. Ezetimibe, the positive control, was also administered orally (at 1 mg/kg) for 28 consecutive days. Blood was drawn in overnight fasted animals on day 1 (pre-treatment), day 8, day 15, and day 29 for measurements of serum total cholesterol (Total plasma cholesterol), high density lipoprotein (HDL), low density lipoprotein (LDL) and triglyceride (TG) levels. The measurement values on day 8, day 15, […] and day 29 were transformed into percentage. One-way ANOVA and Dunnett's test were used to ascertain difference between vehicle control and treated groups.

Structure (SMILES) | inhibition at 30 µM [1] [%] | inhibition at 3 µM [1] [%] | also measured
C[C@@H]1CC[C@]2(C(=O)O)CC[C@]3(C)C(=CC[C@@H]4[C@@]5(C)CC[C@H](O)C(C)(C)[C@@H]5CC[C@]43C)[C@@H]2[C@]1(C)O [Pomolic acid] | 25 |  | 
CC[C@H](C)C(=O)O[C@H]1C[C@@H](C)C=C2C=C[C@H](C)[C@H](CC[C@@H]3C[C@@H](O)CC(=O)O3)[C@H]21 [Lovastatin] | 100 | 100 | 
O=c1c(O[C@@H]2O[C@H](CO)[C@H](O)[C@H](O)[C@H]2O)c(-c2ccc(O)c(O)c2)oc2cc(O)cc(O)c12 [Quercetin-3-O-beta-D-galactopyranoside] |  | 75 | HMG-CoA reductase inhibiting activity (in words) [1]: very good HMG-CoA reductase inhibiting activity
C[C@@H]1CC[C@]2(C(=O)O)CC[C@]3(C)C(=CC[C@@H]4[C@@]5(C)C[C@@H](O)[C@@H](O)C(C)(C)[C@@H]5CC[C@]43C)[C@@H]2[C@]1(C)O [Euscaphic acid] |  | 91 | HMG-CoA reductase inhibiting activity (in words) [1]: strongest HMG-CoA reductase inhibiting activity
C[C@@H]1CC[C@]2(C(=O)O)CC[C@]3(C)C(=CC[C@@H]4[C@@]5(C)CC[C@@H](O)[C@](C)(CO)[C@@H]5CC[C@]43C)[C@@H]2[C@]1(C)O [Barbinervic acid] | 37 |  | 
O=C1[C@H](CC[C@H](O)c2ccc(F)cc2)[C@@H](c2ccc(O)cc2)N1c1ccc(F)cc1 [Ezetimibe] |  |  | LDL levels relative to day one ([2]; t = day 1 (pre-treatment)): 100%; Total plasma cholesterol levels relative to day one (pre-treatment) ([2]; t = day 1 (pre-treatment)): 100%; LDL levels relative to day one ([2]; t = day 15): 22%*; Total plasma cholesterol levels relative to day one (pre-treatment) ([2]; t = day 15): 61%*; LDL levels relative to day one ([2]; t = day 29): 15%*; Total plasma cholesterol levels relative to day one (pre-treatment) ([2]; t = day 29): 41%*
C[C@H]1[C@H](C)CC[C@]2(C(=O)O)CC[C@]3(C)C(=CC[C@@H]4[C@@]5(C)CC[C@H](O)C(C)(C)[C@@H]5CC[C@]43C)[C@H]12 [Ursolic acid] | 0 | 0 | 

From patent publication US10047034B2, “Polyhydroxylated pentacyclic triterpene acids as HMG-COA reductase inhibitors” (Prairie Berry Europe GmbH, priority 2012, dated 2018)
